From the supplement of paper PMC13380429

How the values were obtained:
Settings in all cases: 72 h
Caco-2 [1] = assay: cell viability relative to DMSO; higher = less toxic
Calu-3 [2] = assay: as above
HepG2 [3] = assay: as above
U2OS [4] = assay: as above
Vero E6 [5] = assay: as above
Calu-3 [6] = assay: relative viability EC50 (midpoint between 100% and the lowest measured viability); higher = less toxic
HepG2 [7] = assay: as above
U2OS [8] = assay: as above
Vero E6 [9] = assay: as above
Caco-2 [10] = assay: drug sensitivity score (DSS) for viability; higher = more toxic; extreme values may be limits of the assay
Calu-3 [11] = assay: as above
HepG2 [12] = assay: as above
U2OS [13] = assay: as above
Vero E6 [14] = assay: as above
Caco-2 [15] = assay: relative viability EC50 (midpoint between 100% and the lowest measured viability); higher = less toxic

Cc1ccc(C(=O)N(CCCN)[C@@H](c2nc3cc(Cl)ccc3c(=O)n2Cc2ccccc2)C(C)C)cc1 [ispinesib]
cell viability (Caco-2 [1]; 1 nM): 93.7% | cell viability (Caco-2 [1]; 10 nM): 81.5% | cell viability (Caco-2 [1]; 100 nM): 68.8% | cell viability (Caco-2 [1]; 1000 nM): 64% | cell viability (Caco-2 [1]; 10000 nM): 63.1% | cell viability (Calu-3 [2]; 1 nM): 97.3% | cell viability (Calu-3 [2]; 10 nM): 88.5% | cell viability (Calu-3 [2]; 100 nM): 90.8% | cell viability (Calu-3 [2]; 1000 nM): 90% | cell viability (Calu-3 [2]; 10000 nM): 5.4% | cell viability (HepG2 [3]; 1 nM): 98.7% | cell viability (HepG2 [3]; 10 nM): 55.8% | cell viability (HepG2 [3]; 100 nM): 38.7% | cell viability (HepG2 [3]; 1000 nM): 40% | cell viability (HepG2 [3]; 10000 nM): 18.8% | cell viability (U2OS [4]; 1 nM): 104% | cell viability (U2OS [4]; 10 nM): 92.1% | cell viability (U2OS [4]; 100 nM): 47.6% | cell viability (U2OS [4]; 1000 nM): 43.2% | cell viability (U2OS [4]; 10000 nM): 31.3% | cell viability (Vero E6 [5]; 1 nM): 103% | cell viability (Vero E6 [5]; 10 nM): 94% | cell viability (Vero E6 [5]; 100 nM): 42.4% | cell viability (Vero E6 [5]; 1000 nM): 40.8% | cell viability (Vero E6 [5]; 10000 nM): 38.1% | relative viability EC50 (Calu-3 [6]): 2.29 µM | relative viability EC50 (HepG2 [7]): 0.0173 µM | relative viability EC50 (U2OS [8]): 0.0446 µM | relative viability EC50 (Vero E6 [9]): 0.029 µM | drug sensitivity score (Caco-2 [10]): 12.1 | drug sensitivity score (Calu-3 [11]): 6.9 | drug sensitivity score (HepG2 [12]): 25.4 | drug sensitivity score (U2OS [13]): 19.4 | drug sensitivity score (Vero E6 [14]): 19.5

Oc1cccc(-c2c3nc(c(-c4cccc(O)c4)c4ccc([nH]4)c(-c4cccc(O)c4)c4nc(c(-c5cccc(O)c5)c5ccc2[nH]5)CC4)C=C3)c1 [temoporfin]
cell viability (Caco-2 [1]; 1 nM): 96.2% | cell viability (Caco-2 [1]; 10 nM): 102% | cell viability (Caco-2 [1]; 100 nM): 94.3% | cell viability (Caco-2 [1]; 1000 nM): 94.4% | cell viability (Caco-2 [1]; 10000 nM): 61.4% | cell viability (Calu-3 [2]; 1 nM): 90% | cell viability (Calu-3 [2]; 10 nM): 96.7% | cell viability (Calu-3 [2]; 100 nM): 104% | cell viability (Calu-3 [2]; 1000 nM): 102% | cell viability (Calu-3 [2]; 10000 nM): 91.6% | cell viability (HepG2 [3]; 1 nM): 104% | cell viability (HepG2 [3]; 10 nM): 105% | cell viability (HepG2 [3]; 100 nM): 103% | cell viability (HepG2 [3]; 1000 nM): 106% | cell viability (HepG2 [3]; 10000 nM): 86.4% | cell viability (U2OS [4]; 1 nM): 100% | cell viability (U2OS [4]; 10 nM): 104% | cell viability (U2OS [4]; 100 nM): 96.6% | cell viability (U2OS [4]; 1000 nM): 98.9% | cell viability (U2OS [4]; 10000 nM): 64.7% | cell viability (Vero E6 [5]; 1 nM): 99.3% | cell viability (Vero E6 [5]; 10 nM): 100% | cell viability (Vero E6 [5]; 100 nM): 98.1% | cell viability (Vero E6 [5]; 1000 nM): 90.5% | cell viability (Vero E6 [5]; 10000 nM): 77.6% | relative viability EC50 (Calu-3 [6]): > 10 µM | relative viability EC50 (HepG2 [7]): > 10 µM | relative viability EC50 (Vero E6 [9]): > 10 µM | drug sensitivity score (Caco-2 [10]): 2.8 | drug sensitivity score (Calu-3 [11]): 0 | drug sensitivity score (HepG2 [12]): 0.1 | drug sensitivity score (U2OS [13]): 1.8 | drug sensitivity score (Vero E6 [14]): 1.5

CC[C@H](C)C(=O)O[C@H]1C[C@@H](C)C=C2C=C[C@H](C)[C@H](CC[C@@H]3C[C@@H](O)CC(=O)O3)[C@H]21 [lovastatin]
cell viability (Caco-2 [1]; 1 nM): 92.2% | cell viability (Caco-2 [1]; 10 nM): 85.7% | cell viability (Caco-2 [1]; 100 nM): 84.2% | cell viability (Caco-2 [1]; 1000 nM): 106% | cell viability (Caco-2 [1]; 10000 nM): 101% | cell viability (Calu-3 [2]; 1 nM): 87.8% | cell viability (Calu-3 [2]; 10 nM): 106% | cell viability (Calu-3 [2]; 100 nM): 96.3% | cell viability (Calu-3 [2]; 1000 nM): 111% | cell viability (Calu-3 [2]; 10000 nM): 81.6% | cell viability (HepG2 [3]; 1 nM): 91.2% | cell viability (HepG2 [3]; 10 nM): 109% | cell viability (HepG2 [3]; 100 nM): 96.4% | cell viability (HepG2 [3]; 1000 nM): 92.3% | cell viability (HepG2 [3]; 10000 nM): 88.7% | cell viability (U2OS [4]; 1 nM): 94.1% | cell viability (U2OS [4]; 10 nM): 108% | cell viability (U2OS [4]; 100 nM): 96.2% | cell viability (U2OS [4]; 1000 nM): 96.6% | cell viability (U2OS [4]; 10000 nM): 55.4% | cell viability (Vero E6 [5]; 1 nM): 100% | cell viability (Vero E6 [5]; 10 nM): 100% | cell viability (Vero E6 [5]; 100 nM): 96.2% | cell viability (Vero E6 [5]; 1000 nM): 102% | cell viability (Vero E6 [5]; 10000 nM): 88.1% | relative viability EC50 (Caco-2 [15]): > 10 µM | relative viability EC50 (Calu-3 [6]): > 10 µM | relative viability EC50 (HepG2 [7]): > 10 µM | relative viability EC50 (Vero E6 [9]): > 10 µM | drug sensitivity score (Caco-2 [10]): 0 | drug sensitivity score (Calu-3 [11]): 0.2 | drug sensitivity score (HepG2 [12]): 0.1 | drug sensitivity score (U2OS [13]): 2.8 | drug sensitivity score (Vero E6 [14]): 0

CC(C)c1nc(CN(C)C(=O)N[C@H](C(=O)N[C@@H](Cc2ccccc2)C[C@H](O)[C@H](Cc2ccccc2)NC(=O)OCc2cncs2)C(C)C)cs1 [Ritonavir]
cell viability (Caco-2 [1]; 1 nM): 99.9% | cell viability (Caco-2 [1]; 10 nM): 90.5% | cell viability (Caco-2 [1]; 100 nM): 94.4% | cell viability (Caco-2 [1]; 1000 nM): 96.9% | cell viability (Caco-2 [1]; 10000 nM): 77.6% | cell viability (Calu-3 [2]; 1 nM): 97.4% | cell viability (Calu-3 [2]; 10 nM): 89.1% | cell viability (Calu-3 [2]; 100 nM): 94.9% | cell viability (Calu-3 [2]; 1000 nM): 103% | cell viability (Calu-3 [2]; 10000 nM): 86.3% | cell viability (HepG2 [3]; 1 nM): 103% | cell viability (HepG2 [3]; 10 nM): 93.9% | cell viability (HepG2 [3]; 100 nM): 97.2% | cell viability (HepG2 [3]; 1000 nM): 96.8% | cell viability (HepG2 [3]; 10000 nM): 93.8% | cell viability (U2OS [4]; 1 nM): 93.7% | cell viability (U2OS [4]; 10 nM): 97.8% | cell viability (U2OS [4]; 100 nM): 100% | cell viability (U2OS [4]; 1000 nM): 99.2% | cell viability (U2OS [4]; 10000 nM): 96.4% | relative viability EC50 (Caco-2 [15]): > 10 µM | relative viability EC50 (Calu-3 [6]): > 10 µM | relative viability EC50 (HepG2 [7]): > 10 µM | relative viability EC50 (U2OS [8]): > 10 µM | relative viability EC50 (Vero E6 [9]): > 10 µM | drug sensitivity score (Caco-2 [10]): 1.2 | drug sensitivity score (Calu-3 [11]): 0.1 | drug sensitivity score (HepG2 [12]): 0 | drug sensitivity score (U2OS [13]): 0 | drug sensitivity score (Vero E6 [14]): 0

O=C1OCCN1/N=C/c1ccc([N+](=O)[O-])o1 [furazolidone]
cell viability (Caco-2 [1]; 1 nM): 101% | cell viability (Caco-2 [1]; 10 nM): 90.2% | cell viability (Caco-2 [1]; 100 nM): 95.6% | cell viability (Caco-2 [1]; 1000 nM): 93.6% | cell viability (Caco-2 [1]; 10000 nM): 86.1% | cell viability (Calu-3 [2]; 1 nM): 111% | cell viability (Calu-3 [2]; 10 nM): 97.6% | cell viability (Calu-3 [2]; 100 nM): 100% | cell viability (Calu-3 [2]; 1000 nM): 101% | cell viability (Calu-3 [2]; 10000 nM): 110% | cell viability (HepG2 [3]; 1 nM): 99.3% | cell viability (HepG2 [3]; 10 nM): 104% | cell viability (HepG2 [3]; 100 nM): 102% | cell viability (HepG2 [3]; 1000 nM): 111% | cell viability (HepG2 [3]; 10000 nM): 70.5% | cell viability (U2OS [4]; 1 nM): 101% | cell viability (U2OS [4]; 10 nM): 93.2% | cell viability (U2OS [4]; 100 nM): 97.1% | cell viability (U2OS [4]; 1000 nM): 96.6% | cell viability (U2OS [4]; 10000 nM): 96.5% | cell viability (Vero E6 [5]; 1 nM): 106% | cell viability (Vero E6 [5]; 10 nM): 97.8% | cell viability (Vero E6 [5]; 100 nM): 105% | cell viability (Vero E6 [5]; 1000 nM): 98.2% | cell viability (Vero E6 [5]; 10000 nM): 97.4% | relative viability EC50 (Caco-2 [15]): > 10 µM | relative viability EC50 (Calu-3 [6]): > 10 µM | relative viability EC50 (U2OS [8]): > 10 µM | relative viability EC50 (Vero E6 [9]): > 10 µM | drug sensitivity score (Caco-2 [10]): 0.1 | drug sensitivity score (Calu-3 [11]): 0 | drug sensitivity score (HepG2 [12]): 0.8 | drug sensitivity score (U2OS [13]): 0 | drug sensitivity score (Vero E6 [14]): 0

O=C1NC(=O)c2cc(Nc3ccc(F)cc3)c(Nc3ccc(F)cc3)cc21
cell viability (Caco-2 [1]; 1 nM): 93.9% | cell viability (Caco-2 [1]; 10 nM): 88.6% | cell viability (Caco-2 [1]; 100 nM): 95.2% | cell viability (Caco-2 [1]; 1000 nM): 93.3% | cell viability (Caco-2 [1]; 10000 nM): 70.2% | cell viability (Calu-3 [2]; 1 nM): 106% | cell viability (Calu-3 [2]; 10 nM): 106% | cell viability (Calu-3 [2]; 100 nM): 94.7% | cell viability (Calu-3 [2]; 1000 nM): 106% | cell viability (Calu-3 [2]; 10000 nM): 77.8% | cell viability (HepG2 [3]; 1 nM): 101% | cell viability (HepG2 [3]; 10 nM): 93.9% | cell viability (HepG2 [3]; 100 nM): 101% | cell viability (HepG2 [3]; 1000 nM): 91.8% | cell viability (HepG2 [3]; 10000 nM): 49.7% | cell viability (U2OS [4]; 1 nM): 95% | cell viability (U2OS [4]; 10 nM): 100% | cell viability (U2OS [4]; 100 nM): 97.2% | cell viability (U2OS [4]; 1000 nM): 101% | cell viability (U2OS [4]; 10000 nM): 87.9% | cell viability (Vero E6 [5]; 1 nM): 96.9% | cell viability (Vero E6 [5]; 10 nM): 97.1% | cell viability (Vero E6 [5]; 100 nM): 99.9% | cell viability (Vero E6 [5]; 1000 nM): 93.5% | cell viability (Vero E6 [5]; 10000 nM): 103% | relative viability EC50 (Calu-3 [6]): > 10 µM | relative viability EC50 (HepG2 [7]): 1.91 µM | relative viability EC50 (U2OS [8]): > 10 µM | relative viability EC50 (Vero E6 [9]): > 10 µM | drug sensitivity score (Caco-2 [10]): 2.2 | drug sensitivity score (Calu-3 [11]): 0.5 | drug sensitivity score (HepG2 [12]): 4 | drug sensitivity score (U2OS [13]): 0 | drug sensitivity score (Vero E6 [14]): 0
